Inhibition data for 36 molecules are collected here from patent publication US20250275539A1, “APYRASE INHIBITORS” (Texas Crop Science, Inc., priority 2024, published 2025).

This assay concerns apyrase. As to the kind of experiment: Apyrase inhibition assay (screen for apyrase inhibitors, phosphate release read at 630 nm). The class given is biochemical. The note with it: inhibitor conc at 1 mM (10 μl added), 3 mM ATP, pH 6.5, room temperature 1 hr. As to the method: Apyrase inhibitors useful as enhancers of pesticidal activity are assessed using an in vitro assay. The method of Windsor, Bio Techniques 33:1024-1030 (November 2002) was used as follows
• 96 well plates were used for the assay: (Greiner bio-one: REF-655901-96 well, PS, F-bottom, Clear, Non-binding)
• Reaction Buffer: 60 mM Hepes; 3 mM MgCl2, 3 mM CaCl2) and 3 mM ATP (pH 6.5) • Development Buffer A: 2% aqueous ammonium molybdate • Development Buffer B: 11% ascorbic acid in 37.5% TCA in water • Stop buffer C: 2% trisodium citrate in 2% acetic acid solution in water
• Add 100 μl of reaction buffer to each well. • Add 10 μl of DMSO (control) or inhibitor/compound or compounds such as N1915 or orthovanadate to each well. (use inhibitor conc at 1 mM; orthovanadate at 2 mM and N1915 at 1 mM) • Add 10 μl of apyrase (concentration based on optimization—Dilute 1 U/μl enzyme to different concentrations such as 0.1 U, 0.05 U, 0.0025, 0.001 U, 0.0005 U—to find a good range) • Incubate plate at room temperature for 1 hr • Mix development buffer A and B in the ratio of 1:1.5 (just before use). • Add 50 μl of A: B mix in each well (incubate for 2 mins) • Add 50 μl of C in each well • Measure/Read Absorbance of plate @630 nm
Inhibitory data for the apyrase assay described above are provided for selected compounds in Table 3. D is inhibition of 0% to 10%, C is inhibition from 10% to 20%, B is inhibition from 20% to 30%, and A is inhibition above 30%. Blank entries signify compounds that were not tested.

On to `COc1ccc(OC)c(NS(=O)(=O)c2ccc(-c3ccccc3)cc2)c1` [Compound A-4, N-(2,5-dimethoxyphenyl)-[1,1′-biphenyl]-4-sulfonamide], for which the Inhibition entry is reported as “B (B is inhibition from 20% to 30%)”. In the case of `CCCc1ccc(S(=O)(=O)Nc2ccccc2N2CCCC2=O)cc1` [Compound A-6, N-(2-(2-oxopyrrolidin-1-yl)phenyl)-4-propylbenzenesulfonamide] it was “D (D is inhibition of 0% to 10%)”; in that of `CCCc1ccc(S(=O)(=O)Nc2cccc(N3CCCC3=O)c2)cc1` [Compound A-7, N-(3-(2-oxopyrrolidin-1-yl)phenyl)-4-propylbenzenesulfonamide], “C (C is inhibition from 10% to 20%)”. In the case of `O=S(=O)(c1ccc(-c2ccccc2)cc1)N1CCN(C2CCOCC2)CC1` [Compound A-11, 1-([1,1′-biphenyl]-4-ylsulfonyl)-4-(tetrahydro-2H-pyran-4-yl)piperazine] it was “D (D is inhibition of 0% to 10%)”. Regarding `COC(=O)c1ccc(S(=O)(=O)Nc2cccc(C)c2)cc1` [Compound A-12, methyl 4-(N-(m-tolyl)sulfamoyl)benzoate], the Inhibition result is given as “C (C is inhibition from 10% to 20%)”. For the molecule `O=S(=O)(Nc1nnc[nH]1)c1ccc(-c2ccccc2)cc1` [Compound A-13, N-(4H-1,2,4-triazol-3-yl)-[1,1′-biphenyl]-4-sulfonamide], the Inhibition entry was “D (D is inhibition of 0% to 10%)”. In the case of `O=S(=O)(Nc1cc(-c2cccnc2)n[nH]1)c1ccc(-c2ccccc2)cc1` [Compound A-14, N-(3-(pyridin-3-yl)-1H-pyrazol-5-yl)-[1,1′-biphenyl]-4-sulfonamide] it was “D (D is inhibition of 0% to 10%)”; in that of `Cl.NCCNS(=O)(=O)c1ccc(-c2ccccc2)cc1` [Compound A-15, N-(2-aminoethyl)-[1,1′-biphenyl]-4-sulfonamide hydrochloride], “D (D is inhibition of 0% to 10%)”; in that of `CCCc1ccc(S(=O)(=O)Nc2c(F)cccc2CO)cc1` [Compound A-16, N-(2-fluoro-6-(hydroxymethyl)phenyl)-4-propylbenzenesulfonamide], “C (C is inhibition from 10% to 20%)”.

As for `Cc1cccc(NS(=O)(=O)c2ccc(C(N)=O)cc2)c1` [Compound A-18, 4-(N-(m-tolyl)sulfamoyl)benzamide], the Inhibition entry was “C (C is inhibition from 10% to 20%)”. The entry for `CCCc1ccc(S(=O)(=O)Nc2ccc(CC(C)C(=O)O)cc2)cc1` (stereo not drawn) [Compound A-19, 2-methyl-3-(4-((4-propylphenyl)sulfonamido)phenyl)propanoic acid] is “B (B is inhibition from 20% to 30%)”; for `O=S(=O)(Nc1ncccn1)c1ccc(-c2ccccc2)cc1` [Compound A-20, N-(pyrimidin-2-yl)-[1,1′-biphenyl]-4-sulfonamide] it is “D (D is inhibition of 0% to 10%)”. For the molecule `CCCc1ccc(S(=O)(=O)Nc2ccccc2-n2cnnc2C)cc1` [Compound A-22, N-(2-(3-methyl-4H-1,2,4-triazol-4-yl)phenyl)-4-propylbenzenesulfonamide], the Inhibition result is reported as “D (D is inhibition of 0% to 10%)”.

Turning to `Cn1ccnc(NS(=O)(=O)c2ccc(-c3ccccc3)cc2)c1=O` [Compound A-23, N-(4-methyl-3-oxo-3,4-dihydropyrazin-2-yl)-[1,1′-biphenyl]-4-sulfonamide], the Inhibition result is reported as “B (B is inhibition from 20% to 30%)”.

For `N#Cc1cnc(Cl)c(NS(=O)(=O)c2ccc(-c3ccccc3)cc2)c1` [Compound A-24, N-(2-chloro-5-cyanopyridin-3-yl)-[1,1′-biphenyl]-4-sulfonamide], the Inhibition entry is “C (C is inhibition from 10% to 20%)”. The entry for `CCCc1ccc(S(=O)(=O)Nc2cc(C(=O)OC)ccc2S(N)(=O)=O)cc1` [Compound A-25, methyl 3-((4-propylphenyl)sulfonamido)-4-sulfamoylbenzoate] is “D (D is inhibition of 0% to 10%)”.

With `CCCc1ccc(S(=O)(=O)Nc2ccc(O)c(C(=O)O)c2)cc1` [Compound A-26, 2-hydroxy-5-((4-propylphenyl)sulfonamido) benzoic acid], the Inhibition entry is “B (B is inhibition from 20% to 30%)”. In the case of `CCCc1ccc(S(=O)(=O)Nc2ccccc2Sc2nncn2C)cc1` [Compound A-27, N-(2-((4-methyl-4H-1,2,4-triazol-3-yl)thio)phenyl)-4-propylbenzenesulfonamide] it was “D (D is inhibition of 0% to 10%)”. The entry for `CCCc1ccc(S(=O)(=O)Nc2cccc(-c3nnnn3C3CC3)c2)cc1` [Compound A-28, N-(3-(1-cyclopropyl-1H-tetrazol-5-yl)phenyl)-4-propylbenzenesulfonamide] is “D (D is inhibition of 0% to 10%)”. Take `CCCc1ccc(S(=O)(=O)Nc2ccc(N3CCCS3(=O)=O)cc2)cc1` [Compound A-30, N-(4-(1,1-dioxidoisothiazolidin-2-yl)phenyl)-4-propylbenzenesulfonamide]: the Inhibition result is reported as “C (C is inhibition from 10% to 20%)”. In the case of `CCCc1ccc(S(=O)(=O)Nc2ccc(NC(=O)C3CC3)cc2)cc1` [Compound A-31, N-(4-((4-propylphenyl)sulfonamido)phenyl)cyclopropanecarbox-amide] it was “D (D is inhibition of 0% to 10%)”. In the case of `CCCc1ccc(S(=O)(=O)Nc2ccc(S(=O)(=O)CC)cc2)cc1` [Compound A-32, N-(4-(ethylsulfonyl)phenyl)-4-propylbenzenesulfonamide] it was “C (C is inhibition from 10% to 20%)”. In the case of `NC1CCN(S(=O)(=O)c2ccc(-c3ccccc3)cc2)CC1` [Compound A-33, 1-([1,1′-biphenyl]-4-ylsulfonyl)piperidin-4-amine], the Inhibition result is given as “B (B is inhibition from 20% to 30%)”. The entry for `CCCc1ccc(S(=O)(=O)Nc2ccc(F)c(NC(C)=O)c2)cc1` [Compound A-35, N-(2-fluoro-5-((4-propylphenyl)sulfonamido)phenyl)acetamide] is “D (D is inhibition of 0% to 10%)”. The entry for `O=S(=O)(NCc1ccc2c(c1)OCO2)c1ccc(-c2ccccc2)cc1` [Compound A-36, N-(benzo[d][1,3]dioxol-5-ylmethyl)-[1,1′-biphenyl]-4-sulfonamide] is “A (A is inhibition above 30%)”. On to `CCCc1ccc(S(=O)(=O)Nc2ccc(O)c(NC(C)=O)c2)cc1` [Compound A-38, N-(2-hydroxy-5-((4-propylphenyl)sulfonamido)phenyl)acetamide], for which the Inhibition entry is listed as “C (C is inhibition from 10% to 20%)”. The entry for `CCCc1ccc(S(=O)(=O)Nc2ccccc2-n2cc(C(=O)OC)nn2)cc1` [Compound A-39, methyl 1-(2-((4-propylphenyl)sulfonamido)phenyl)-1H-1,2,3-triazole-4-carboxylate] is “D (D is inhibition of 0% to 10%)”.

As for `CCCc1ccc(S(=O)(=O)Nc2ccc(-c3ccnc(C)n3)cc2)cc1` [Compound A-40, N-(4-(2-methylpyrimidin-4-yl)phenyl)-4-propylbenzenesulfonamide], the Inhibition result is recorded as “D (D is inhibition of 0% to 10%)”. The entry for `CCCc1ccc(S(=O)(=O)Nc2ccccc2CC(=O)NC)cc1` [Compound A-41, N-methyl-2-(2-((4-propylphenyl)sulfonamido)phenyl)acetamide] is “A (A is inhibition above 30%)”; for `CCCc1ccc(S(=O)(=O)Nc2cccc(F)c2C(=O)O)cc1` [Compound A-42, 2-fluoro-6-((4-propylphenyl)sulfonamido) benzoic acid] it is “B (B is inhibition from 20% to 30%)”. The entry for `CCCc1ccc(S(=O)(=O)Nc2ccc(F)cc2C(=O)O)cc1` [Compound A-43, 5-fluoro-2-((4-propylphenyl)sulfonamido) benzoic acid] is “C (C is inhibition from 10% to 20%)”.

With `CCCc1ccc(S(=O)(=O)Nc2ccc(C(=O)O)cc2)cc1` [Compound A-44, 4-((4-propylphenyl)sulfonamido) benzoic acid], the Inhibition entry is listed as “D (D is inhibition of 0% to 10%)”. In the case of `CCCc1ccc(S(=O)(=O)Nc2cc(OC)c(OC)cc2C(=O)O)cc1` [Compound A-45, 4,5-dimethoxy-2-((4-propylphenyl)sulfonamido) benzoic acid] it was “C (C is inhibition from 10% to 20%)”. The entry for `CCCc1ccc(S(=O)(=O)Nc2ccc(CC(=O)O)cc2)cc1` [Compound A-46, 2-(4-((4-propylphenyl)sulfonamido)phenyl)acetic acid] is “A (A is inhibition above 30%)”. For `CCCc1ccc(S(=O)(=O)Nc2cc(Cl)ccc2N2CCOCC2)cc1` [Compound A-47, N-(5-chloro-2-morpholinophenyl)-4-propylbenzenesulfonamide], the Inhibition entry is listed as “B (B is inhibition from 20% to 30%)”. In the case of `CCCc1ccc(S(=O)(=O)Nc2ccccc2CC)cc1` [Compound A-48, N-(2-ethylphenyl)-4-propylbenzenesulfonamide] it was “B (B is inhibition from 20% to 30%)”.
